Values after ≈ are worked out from the molar mass of the structure shown. Where two headings read alike, the source gives them in different places.

The conditions of series [1]: 0.5 mM in 0.1 M PBS, pH 7.4, 37° C.; cited from earlier work.
In series [2] the test system is spermatozoa. Particulars: cited from earlier work.
Series [3] has as its target human spermatozoa. Description: Inhibition of fractionated NO23-SAMMA-induced acrosomal loss by protein kinase G inhibitor. It is filed as cell-based. The conditions noted are these: Ca2+-independent (absence of added extracellular Ca2+). The source says: NO23-SAMMA, whether fractionated or not, appears, at least in part, to act through release of nitric oxide. Fractionated NO23-SAMMA-induced acrosomal loss in the absence of added extracellular Ca^2+ is inhibited by the selective protein kinase G inhibitor KT5823 (see FIG. 6). […] Acrosomal loss in human spermatozoa in response to NO donors is inhibited by protein kinase G inhibitors ([…] et al., “Signaling pathway of nitric oxide-induced acrosome reaction in human spermatozoa”, Biol. Reprod., 64: 1708-12 (2001)). […] Inhibition of acrosomal loss by the selective protein kinase G inhibitor supports this contention.

The subject of series [4] is spermatozoa. Particulars: cited from earlier work. This is another data set of the same source.
In a further series the test system is hyaluronidase. The experiment in a line: Hyaluronidase activity inhibition. The format is biochemical. The conditions noted are these: 50 μM. The procedure:
Hyaluronidase activity was measured as described in Example 8 of U.S. Pat. No. 5,932,619. […] In contrast, the NO donor moiety of NO23-SAMMA, nitrooxypropanol, is nearly without effect.

In series [5] the test system is human spermatozoa. Description: Acrosomal loss (AL) in human spermatozoa. Particulars: for EC50: Homo sapiens, Spermatozoa. The format is cell-based. The procedure:
Measurement of AL was carried out as described previously. […] All reactions were carried out in either the presence or absence of added extracellular Ca^2+ (1.28 mM). […] Data are expressed as the average % maximal response, based on the AL induced by a maximally stimulating concentration of the calcium ionophore A23187.
Unless otherwise noted, acrosomal loss data were obtained from assays that included Ca^2+ in the extracellular medium. In contrast, acrosomal loss induced by NO donors occurs independent of Ca^2+. […] Although not wishing to be limited by theory, it appears that acrosomal loss in the presence of added extracellular Ca^2+ may be due to either or both moieties, whereas acrosomal loss in the absence of Ca^2+ is due entirely to the NO donor moiety.

The test system of series [6] is spermatozoa. Description: Sperm immobilization (modified Sander and Cramer), motile spermatozoa. The format is cell-based. The conditions noted are these: 10 mM. An excerpt: Data are presented as the percentage of motile spermatozoa at each concentration of test agent. When possible, test outcomes were also reported as the concentration of agent in the semen sample that reduces motility by 50%.

A further series deals with HIV-1 Bee. Description: HIV-1 infected primary lymphocytes, agent added after inoculation (p24, day 7). It is filed as cell-based. Particulars: agent added after 2 h inoculation and washing, p24 on day 7. The procedure: HIV is sensitive to inhibition by the NO donor used to synthesize NO-SAMMA (nitrooxypropanol), although substantially less than to NO-SAMMA. […] Viral replication was measured on day 7 of incubation (p24 levels).

Series [7] deals with C. trachomatis (serotype E/UW-5/CX). Description: Infection of HeLa cells by C. trachomatis. Particulars: read-out: IC50 against C. trachomatis. It is filed as cell-based, Chlamydia trachomatis. How it is done: Effect of NO-SAMMA against C. trachomatis. […] This was followed by inoculation of the monolayer with chlamydial elementary bodies. One hour after inoculation, free microbes and/or microbicide were removed by washing, and the HeLa cell cultures were incubated for an additional 48 hours at 37° C. Chlamydia-induced inclusions were measured by immunofluorescence, after reacting cultures with Kallsted chlamydia culture confirmation fluorescein-conjugated monoclonal antibody.

In series [8] the test system is vaginal/cervical epithelial and other cells. The conditions noted are these: cited from earlier work.

Turning to `CC/C(=C\C(=N/O)C(N)=O)C(C)[N+](=O)[O-]` (racemic) [NOR-3, (±)-E-4-ethyl-2-[(E)-hydroxyimino]-5 nitro-3-hexenamide], the half-life result in series [1] is given as “about 30 minutes”. As for `NCCOB(c1ccccc1)c1ccccc1` [2-APB], the “effect on SAMMA-induced acrosomal loss” value in the series with spermatozoa [2] is listed as “not inhibited”. With `CCCCCCOC(=O)[C@]1(O)C[C@@H]2O[C@@]1(C)n1c3ccccc3c3c4c(c5c6ccccc6n2c5c31)C(=O)NC4` [KT5720], the “effect on SAMMA-induced acrosomal loss” value with spermatozoa [2] is “not inhibited”. Take `COC(=O)[C@@]1(OC)C[C@H]2O[C@]1(C)n1c3ccccc3c3c4c(c5c6ccccc6n2c5c31)C(=O)N(C)C4` [KT5823]: the “inhibition of SAMMA-induced acrosomal loss” value in the series on spermatozoa [2] (2 μM) is recorded as above 95%. Further, the midpoint of inhibition against human spermatozoa [3], the IC50, lay at 700 nM. Further, the “effect on NO donor-induced acrosomal loss” value with spermatozoa [4] (2 μM) was “not inhibited”. As for `O=[N+]([O-])OCCCO` [Nitrooxypropanol, 3-nitrooxy-1-propanol], the “Inhibition ± SEM (N = 4)” value in the series with hyaluronidase was 8 ± 1.8% at 50 μM. The EC50 was 120 nM in the series on human spermatozoa [5] (Ca2+-independent, read-out: ED50 acrosomal loss) and 120 nM in the series with human spermatozoa [5] (read-out: ED50 as a stimulus of acrosomal loss). In the series with spermatozoa [6], the “% Motile Spermatozoa av ± SEM (n = 4)” value came to 66 ± 0.5 at 10 mM %. The half-inhibitory concentration (IC50) in the series with HIV-1 Bee (Human immunodeficiency virus 1, Lymphocyte) turned out to be 2540 µg/mL (≈ 21 mM). Besides, the “concentration giving 80% reduction (printed in the 3-Log reduction column)” value with HIV-1 Bee is reported as 1017 (80% reduction) μg/mL.

`O=c1onc2cnc3ccccc3n12` [ODQ]: the “inhibition of SAMMA-induced acrosomal loss” value in the series with spermatozoa [2] (0.1 μM) is reported as around 50%.

For the compound `O=c1c2nc(Br)n([C@@H]3O[C@@H]4CO[P@@](O)(=S)O[C@H]4[C@H]3O)c2nc2[nH]c(-c3ccccc3)cn12` [Rp-8-Br-PET-cGMPS], the “effect on NO donor-induced acrosomal loss” value with spermatozoa [4] (0.35 μM) is “not inhibited”. On to nitroprusside, for which, in series [7], the IC50 amounted to 23000 nM. In addition, in the series with human spermatozoa [5] (22 μM), the “% maximal AL” value came to 74%. nonoxynol-9: the “lowest concentration that can injure cells” value in series [8] was “about 0.0005%”.

In general, IC50 refers to the concentration that gives 50% inhibition.

Values taken from patent publication US9603841B2, “Vector delivery-based microbicides” (Rush University Medical Center, priority 2005, dated 2017).
